According to the supplement of paper PMC10307832:

How the values were obtained:
Experiment in all cases: relative viability (nuclei count vs DMSO), 5 days (fraction); higher = more cells survive
A549 = tested on: A549
In short: (§1)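 Dosing by pin tool came one day after lung cancer cell lines were seeded in 1536-well plates, using either one drug or a fixed anchor-drug dose plus five library-drug doses (not always all listed) in √10 steps. After 5 days, nuclei were counted on 4× images. Relative viability is treated-well nuclei count divided by vehicle-well nuclei count, and values are medians of duplicate plates.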

NCI-H1623 = tested on: NCI-H1623
In short: as §1

IA-LM = tested on: IA-LM
In short: as §1

NCI-H1299 = tested on: NCI-H1299
In short: as §1

LCLC-103H = tested on: LCLC-103H
In short: as §1

Calu-6 = tested on: Calu-6
In short: as §1

NCI-H1703 = tested on: NCI-H1703
In short: as §1

NCI-H1355 = tested on: NCI-H1355
In short: as §1

NCI-H520 = tested on: NCI-H520
In short: as §1

EBC-1 = tested on: EBC-1
In short: as §1

NCI-H1648 = tested on: NCI-H1648
In short: as §1

NCI-H522 = tested on: NCI-H522
In short: as §1

Compound: O=C(O)c1ccc(-c2c[nH]c3ncc(-c4ccccc4)cc23)cc1C1CCCC1 + COc1cc2c(Oc3ccc(NC(=O)C4(C(=O)Nc5ccc(F)cc5)CC4)cc3F)ccnc2cc1OCCCN1CCOCC1 [Foretinib] (partner 0.25 µM)
- relative viability (A549; first compound 0.04 µM): 0.944
- relative viability (A549; first compound 0.1265 µM): 1.07
- relative viability (A549; first compound 0.4 µM): 1.07
- relative viability (A549; first compound 1.265 µM): 0.628
- relative viability (NCI-H1623; first compound 0.04 µM): 0.859
- relative viability (NCI-H1623; first compound 0.1265 µM): 0.747
- relative viability (NCI-H1623; first compound 0.4 µM): 0.835
- relative viability (NCI-H1623; first compound 1.265 µM): 0.798
- relative viability (IA-LM; first compound 0.04 µM): 1.23
- relative viability (IA-LM; first compound 0.1265 µM): 1.25
- relative viability (IA-LM; first compound 0.4 µM): 1.15
- relative viability (IA-LM; first compound 1.265 µM): 0.864
- relative viability (NCI-H1299; first compound 0.04 µM): 1.12
- relative viability (NCI-H1299; first compound 0.1265 µM): 1.14
- relative viability (NCI-H1299; first compound 0.4 µM): 1.04
- relative viability (NCI-H1299; first compound 1.265 µM): 0.956
- relative viability (LCLC-103H; first compound 0.04 µM): 0.702
- relative viability (LCLC-103H; first compound 0.1265 µM): 0.793
- relative viability (LCLC-103H; first compound 0.4 µM): 0.613
- relative viability (LCLC-103H; first compound 1.265 µM): 0.507
- relative viability (Calu-6; first compound 0.04 µM): 0.872
- relative viability (Calu-6; first compound 0.1265 µM): 0.904
- relative viability (Calu-6; first compound 0.4 µM): 0.815
- relative viability (Calu-6; first compound 1.265 µM): 0.706
- relative viability (NCI-H1703; first compound 0.04 µM): 0.381
- relative viability (NCI-H1703; first compound 0.1265 µM): 0.313
- relative viability (NCI-H1703; first compound 0.4 µM): 0.348
- relative viability (NCI-H1703; first compound 1.265 µM): 0.372
- relative viability (NCI-H1355; first compound 0.04 µM): 1.08
- relative viability (NCI-H1355; first compound 0.1265 µM): 0.992
- relative viability (NCI-H1355; first compound 0.4 µM): 0.957
- relative viability (NCI-H1355; first compound 1.265 µM): 0.622
- relative viability (NCI-H520; first compound 0.04 µM): 0.687
- relative viability (NCI-H520; first compound 0.1265 µM): 0.923
- relative viability (NCI-H520; first compound 0.4 µM): 0.78
- relative viability (NCI-H520; first compound 1.265 µM): 0.717
- relative viability (EBC-1; first compound 0.04 µM): 0.112
- relative viability (EBC-1; first compound 0.1265 µM): 0.123
- relative viability (EBC-1; first compound 0.4 µM): 0.119
- relative viability (EBC-1; first compound 1.265 µM): 0.101

Compound: O=C(O)c1ccc(-c2c[nH]c3ncc(-c4ccccc4)cc23)cc1C1CCCC1 + Cc1cc(Nc2cc(N3CCN(C)CC3)nc(Sc3ccc(NC(=O)C4CC4)cc3)n2)n[nH]1 [Tozasertib] (partner 0.1 µM)
- relative viability (NCI-H1623; first compound 0.04 µM): 0.421
- relative viability (NCI-H1623; first compound 0.1265 µM): 0.488
- relative viability (NCI-H1623; first compound 0.4 µM): 0.481
- relative viability (NCI-H1623; first compound 1.265 µM): 0.398
- relative viability (NCI-H1648; first compound 0.04 µM): 0.545
- relative viability (NCI-H1648; first compound 0.1265 µM): 0.635
- relative viability (NCI-H1648; first compound 0.4 µM): 0.439
- relative viability (NCI-H1648; first compound 1.265 µM): 0.378
- relative viability (LCLC-103H; first compound 0.04 µM): 0.538
- relative viability (LCLC-103H; first compound 0.1265 µM): 0.552
- relative viability (LCLC-103H; first compound 0.4 µM): 0.4
- relative viability (LCLC-103H; first compound 1.265 µM): 0.392
- relative viability (NCI-H1355; first compound 0.04 µM): 0.56
- relative viability (NCI-H1355; first compound 0.1265 µM): 0.632
- relative viability (NCI-H1355; first compound 0.4 µM): 0.522
- relative viability (NCI-H1355; first compound 1.265 µM): 0.281
- relative viability (NCI-H520; first compound 0.04 µM): 0.504
- relative viability (NCI-H520; first compound 0.1265 µM): 0.408
- relative viability (NCI-H520; first compound 0.4 µM): 0.384
- relative viability (NCI-H520; first compound 1.265 µM): 0.483
- relative viability (NCI-H522; first compound 0.04 µM): 0.537
- relative viability (NCI-H522; first compound 0.1265 µM): 0.654
- relative viability (NCI-H522; first compound 0.4 µM): 0.579
- relative viability (NCI-H522; first compound 1.265 µM): 0.498

Compound: Oc1nc(-c2ccc(C(F)(F)F)cc2)nc2c1CSCC2 [XAV939] + COc1cc2c(Oc3ccc(NC(=O)C4(C(=O)Nc5ccc(F)cc5)CC4)cc3F)ccnc2cc1OCCCN1CCOCC1 [Foretinib] (partner 0.25 µM)
- relative viability (A549; first compound 0.08 µM): 0.992
- relative viability (A549; first compound 0.8 µM): 0.883
- relative viability (A549; first compound 2.53 µM): 0.9
- relative viability (NCI-H1623; first compound 0.08 µM): 0.826
- relative viability (NCI-H1623; first compound 0.253 µM): 0.75
- relative viability (NCI-H1623; first compound 0.8 µM): 0.703
- relative viability (NCI-H1623; first compound 2.53 µM): 0.677
- relative viability (IA-LM; first compound 0.08 µM): 1.29
- relative viability (IA-LM; first compound 0.253 µM): 0.968
- relative viability (IA-LM; first compound 0.8 µM): 1.09
- relative viability (IA-LM; first compound 2.53 µM): 0.729
- relative viability (NCI-H1299; first compound 0.08 µM): 1.13
- relative viability (NCI-H1299; first compound 0.253 µM): 1.11
- relative viability (NCI-H1299; first compound 0.8 µM): 1.07
- relative viability (NCI-H1299; first compound 2.53 µM): 1.08
- relative viability (LCLC-103H; first compound 0.08 µM): 0.853
- relative viability (LCLC-103H; first compound 0.253 µM): 0.643
- relative viability (LCLC-103H; first compound 0.8 µM): 0.748
- relative viability (LCLC-103H; first compound 2.53 µM): 0.659
- relative viability (Calu-6; first compound 0.08 µM): 0.88
- relative viability (Calu-6; first compound 0.253 µM): 0.704
- relative viability (Calu-6; first compound 0.8 µM): 0.776
- relative viability (Calu-6; first compound 2.53 µM): 0.819
- relative viability (NCI-H1703; first compound 0.08 µM): 0.348
- relative viability (NCI-H1703; first compound 0.253 µM): 0.377
- relative viability (NCI-H1703; first compound 0.8 µM): 0.416
- relative viability (NCI-H1703; first compound 2.53 µM): 0.374
- relative viability (NCI-H1355; first compound 0.08 µM): 0.946
- relative viability (NCI-H1355; first compound 0.253 µM): 0.839
- relative viability (NCI-H1355; first compound 0.8 µM): 0.786
- relative viability (NCI-H1355; first compound 2.53 µM): 0.619
- relative viability (NCI-H520; first compound 0.08 µM): 0.781
- relative viability (NCI-H520; first compound 0.253 µM): 0.694
- relative viability (NCI-H520; first compound 0.8 µM): 0.677
- relative viability (NCI-H520; first compound 2.53 µM): 0.626
- relative viability (EBC-1; first compound 0.08 µM): 0.108
- relative viability (EBC-1; first compound 0.253 µM): 0.113
- relative viability (EBC-1; first compound 0.8 µM): 0.106
- relative viability (EBC-1; first compound 2.53 µM): 0.0948
